Experimental findings from patent publication US20240025852A1, “T-TYPE CALCIUM CHANNEL MODULATORS AND METHODS OF USE THEREOF” (PRAXIS PRECISION MEDICINES, INC., priority 2020, published 2024) are described below.

For series [1], the target named is T1, Recombinant CYP3A4 Supersomes (Homo sapiens, UniProt P08684).
T1 construct: purchased
Briefly: Recombinant CYP3A4 Clearance Assay. Particulars: for % of Control (intrinsic clearance relative to the control compound): observed CLint divided by average CLint of undeuterated control compound; for Half-Life / CLint: recombinant CYP3A4 50 pmol/mL, 1 μM substrate, NADPH; for Half-Life: 0-120 minutes; for CLint: control = geometric mean of 3 replicates. The format is in vitro ADME. How it is done:
The CYP3A4 Clearance Assay was performed to determine the stability of deuterated compounds described herein and calculate changes in clearance relative to the control compound (undeuterated compound) that has the following structure:
Recombinant CYP3A4 Supersomes were prepared in 100 mM potassium phosphate buffer (50 pmol/mL final recombinase) and 80 μL aliquots were delivered per well to 96-well reaction plates containing 10 μL/well stock working solution containing substrate at 10× final concentration in 0.1:9.9:90 DMSO:ACN:100 mM phosphate buffer. Final substrate concentration during incubation was 1 μM. Reaction mixtures were pre-incubated at 37° C. for 10 minutes, prior to addition of 10 μL/well of NADPH regenerating system to initiate the reaction (β-Nicotinamide adenine dinucleotide phosphate) or 100 mM phosphate as a buffer control.
Clearance assessments were performed for test compounds in singlicate except for the control compound, which was tested in triplicate. Incubations were maintained at 37° C. for 0, 5, 15, 30, 45, 60, 90, and 120 minutes (or 0 and 120 minutes for buffer control). The reactions were terminated with 3× volume of cold (4° C.) acetonitrile (ACN) containing 200 ng/mL tolbutamide and 200 ng/mL labetalol as internal standards (IS). The crash plates were centrifuged at 4000 rpm at 4° C. for 20 min to precipitate residual protein. Following protein precipitation, sample supernatants were harvested and 3× volume of HPLC grade water was added to each sample for chromatography purposes. Plates were sealed and shaken for 10 minutes prior to LC-MS/MS analysis using generic LCMS/MS conditions.
(§1) LC-MS/MS chromatograms were analyzed by peak area ratio (test article peak area/internal standard peak area) and natural log transformed, and plotted against time. The slope of the line was determined to calculate elimination rate constant. Subsequently, half-life (t1/2) and intrinsic clearance (CLint) were calculated using the following equations: […]
Average intrinsic clearance of the control compound was determined by taking the geometric mean of 3 replicates.

A short description of series [2]: Hμrel Low Clearance Assay. The format is in vitro ADME, human. On the set-up: % of Control (intrinsic clearance relative to the control compound): tested at 1 µM. Conditions: HμRELhumanPool 96-well hepatic co-culture, human hepatic co-culture, 1 μM substrate, 0-72 hr incubation, control = geometric mean of 3 replicates. The protocol: (§2) The Hμrel Low Clearance Assay was performed to determine the stability of deuterated compounds described herein and calculate changes in clearance relative to the control compound (undeuterated compound) that has the following structure:
(§3) HμRELhumanPool™ 96-well hepatic co-culture plates were media changed and cells were allowed to acclimatize at 37° C. for 20 hr. HμREL® incubation media (serum free) and test compound diluted from a 1000×DMSO stock (final substrate concentration 1 μM; final DMSO concentration 0.1%) were added to the HμREL© 96-well co-culture system at a final cell number of 30,000 cells per well to initiate the reaction. The final incubation volume was 80 μL per time point and two control compounds were included for reference (ketoprofen and prednisolone). All clearance assessments were performed in singlicate with the exception of the undeuterated control compound, which was tested in duplicate on two separate days for a total of 4 replicates. Each compound was incubated for 0, 2, 6, 24, 48 and 72 hr. The reactions were terminated by transferring 60 μL of incubate to 180 μL acetonitrile containing internal standard at the appropriate time points. The crash plates were centrifuged at 3000 rpm at 4° C. for 20 min to precipitate residual protein. Following protein precipitation, sample supernatants were combined in cassettes of up to 4 compounds and analyzed using generic LCMS/MS conditions.
as §1
(§4) Average clearance of the control compound was determined by taking the geometric mean of 3 of the four replicates. The fourth replicate was excluded from the average determination as an outlier.

Series [3] deals with HμRELhumanPool 96-well hepatic co-culture. The series is described as follows: Hμrel Low Clearance Assay. The format is in vitro ADME, human. Also noted: % of Control (intrinsic clearance relative to the control compound): tested at 1 µM. Conditions: for Half-Life: human hepatic co-culture, 1 μM substrate, 0-72 hr incubation; for % of Control (intrinsic clearance relative to the control compound): observed CLint divided by average CLint of undeuterated control compound. How it is done:
as §2, §3, §1, §4

T1 sequence (P08684 whole entry): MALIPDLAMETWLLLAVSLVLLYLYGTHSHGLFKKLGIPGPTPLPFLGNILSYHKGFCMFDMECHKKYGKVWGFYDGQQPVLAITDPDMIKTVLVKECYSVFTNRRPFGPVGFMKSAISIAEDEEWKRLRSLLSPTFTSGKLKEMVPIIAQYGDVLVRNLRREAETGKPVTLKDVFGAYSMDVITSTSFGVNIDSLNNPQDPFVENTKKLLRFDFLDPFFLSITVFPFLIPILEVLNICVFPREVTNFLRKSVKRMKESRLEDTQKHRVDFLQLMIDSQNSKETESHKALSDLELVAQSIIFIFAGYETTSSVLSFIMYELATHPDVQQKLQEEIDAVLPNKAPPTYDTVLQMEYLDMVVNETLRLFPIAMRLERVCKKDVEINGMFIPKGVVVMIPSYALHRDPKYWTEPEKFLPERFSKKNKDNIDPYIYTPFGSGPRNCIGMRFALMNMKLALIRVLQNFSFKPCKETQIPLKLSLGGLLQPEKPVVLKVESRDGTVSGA

A word on the hepatocyte CLint: it is the rate of metabolic loss divided by the concentration. For the compound `[2H]C1([2H])N(CC(=O)NC(C)(C)C)C([2H])([2H])C([2H])([2H])C([2H])(CNC(=O)c2cc(F)cc(Cl)c2)C1([2H])[2H]` [Compound 1, N-[[1-[2-(tert-butylamino)-2-oxo-ethyl]-2,2,3,3,4,5,5,6,6-nonadeuterio-4-piperidyl]methyl]-3-chloro-5-fluoro-benzamide], in series [1], the “% of Control (intrinsic clearance relative to the control compound)” value stood at 65.3%, the Half-Life is 0.202 h and the CLint came out at 1.15 µL/min/pmol. The compound further showed an intrinsic clearance (hepatocyte CLint) at 1 μM in series [2] (human) of 0.539 µL/min/1e6 cells. Further, in series [3], the Half-Life came to 57.17 h and the “% of Control (intrinsic clearance relative to the control compound)” value is on record as 38.1%.

`[2H]C1([2H])CC(CNC(=O)c2cc(F)cc(Cl)c2)CC([2H])([2H])N1CC(=O)NC(C)(C)C` [Compound 2, N-[[1-[2-(tert-butylamino)-2-oxo-ethyl]-2,2,6,6-tetradeuterio-4-piperidyl]methyl]-3-chloro-5-fluoro-benzamide]: in series [1], the “% of Control (intrinsic clearance relative to the control compound)” value is 68.5%, the Half-Life came to 0.192 h and the CLint came out at 1.21 µL/min/pmol. The compound also registered a hepatocyte CLint at 1 μM in series [2] of 1.21 µL/min/1e6 cells. Further, in series [3], the Half-Life came out at 25.5 h and the “% of Control (intrinsic clearance relative to the control compound)” value worked out at 85.5%.

Turning to `[2H]C1([2H])CN(CC(=O)NC(C)(C)C)CC([2H])([2H])C1CNC(=O)c1cc(F)cc(Cl)c1` [Compound 3, N-[[1-[2-(tert-butylamino)-2-oxo-ethyl]-3,3,5,5-tetradeuterio-4-piperidyl]methyl]-3-chloro-5-fluoro-benzamide], in series [1], the “% of Control (intrinsic clearance relative to the control compound)” value was found to be 82.3%, the Half-Life was found to be 0.16 h and the CLint worked out at 1.45 µL/min/pmol. The same compound showed a hepatocyte CLint at 1 μM in series [2] (human) of 1.47 µL/min/1e6 cells. Moreover, in series [3], the Half-Life was 21 h and the “% of Control (intrinsic clearance relative to the control compound)” value was determined as 104%.

Consider `[2H]C([2H])(NC(=O)c1cc(F)cc(Cl)c1)C1CCN(CC(=O)NC(C)(C)C)CC1` [Compound 4, N-[[1-[2-(tert-butylamino)-2-oxo-ethyl]-4-piperidyl]-dideuterio-methyl]-3-chloro-5-fluoro-benzamide], for which, in series [1], the “% of Control (intrinsic clearance relative to the control compound)” value is on record as 98.6%, the Half-Life worked out at 0.133 h and the CLint is 1.74 µL/min/pmol. Besides, the intrinsic clearance (hepatocyte CLint) at 1 μM in series [2] (human) is 1.5 µL/min/1e6 cells. In series [3], the Half-Life came out at 20.5 h and the “% of Control (intrinsic clearance relative to the control compound)” value came to 106%.

Consider `[2H]C([2H])(NC(=O)c1cc(F)cc(Cl)c1)C1CCN(CC(=O)NC(C([2H])([2H])[2H])(C([2H])([2H])[2H])C([2H])([2H])[2H])CC1` [Compound 5, 3-chloro-N-[dideuterio-[1-[2-oxo-2-[[2,2,2-trideuterio-1,1-bis(trideuteriomethyl)ethyl]amino]ethyl]-4-piperidyl]methyl]-5-fluoro-benzamide], for which, in series [1], the “% of Control (intrinsic clearance relative to the control compound)” value was 94.1%, the Half-Life turned out to be 0.14 h and the CLint turned out to be 1.66 µL/min/pmol. Moreover, the hepatocyte CLint at 1 μM in series [2] (human) turned out to be 1.32 µL/min/1e6 cells. In series [3], the Half-Life worked out at 23.33 h and the “% of Control (intrinsic clearance relative to the control compound)” value was 93.3%.

Turning to `[2H]C([2H])(C(=O)NC(C)(C)C)N1CCC(CNC(=O)c2cc(F)cc(Cl)c2)CC1` [Compound 6, N-[[1-[2-(tert-butylamino)-1,1-dideuterio-2-oxo-ethyl]-4-piperidyl]methyl]-3-chloro-5-fluoro-benzamide], in series [1], the “% of Control (intrinsic clearance relative to the control compound)” value was 77.2%, the Half-Life worked out at 0.17 h and the CLint was 1.36 µL/min/pmol. In series [2] (human), this compound returned an intrinsic metabolic clearance (hepatocyte CLint) at 1 μM of 1.41 µL/min/1e6 cells. For the same compound, in series [3], the Half-Life stood at 21.83 h and the “% of Control (intrinsic clearance relative to the control compound)” value is 99.6%.

Consider `[2H]C([2H])([2H])C(C)(C)NC(=O)CN1CCC(CNC(=O)c2cc(F)cc(Cl)c2)CC1` [Compound 7, 3-chloro-5-fluoro-N-[[1-[2-oxo-2-[(2,2,2-trideuterio-1,1-dimethyl-ethyl)amino]ethyl]-4-piperidyl]methyl]benzamide], for which, in series [1], the “% of Control (intrinsic clearance relative to the control compound)” value came out at 100%, the Half-Life was determined as 0.132 h and the CLint was 1.76 µL/min/pmol. In addition, the hepatocyte CLint at 1 μM in series [2] (human) is 1.41 µL/min/1e6 cells. Also, in series [3], the Half-Life came out at 21.83 h and the “% of Control (intrinsic clearance relative to the control compound)” value is given as 99.6%.

As to `[2H]C1([2H])CN(CC(=O)NC(C([2H])([2H])[2H])(C([2H])([2H])[2H])C([2H])([2H])[2H])CC([2H])([2H])C1CNC(=O)c1cc(F)cc(Cl)c1` [Compound 8, 3-chloro-5-fluoro-N-[[3,3,5,5-tetradeuterio-1-[2-oxo-2-[[2,2,2-trideuterio-1,1-bis(trideuteriomethyl)ethyl]amino]ethyl]-4-piperidyl]methyl]benzamide], in series [1], the “% of Control (intrinsic clearance relative to the control compound)” value was 88.4%, the Half-Life came out at 0.148 h and the CLint was 1.56 µL/min/pmol. Moreover, the intrinsic clearance (hepatocyte CLint) at 1 μM in series [2] (human) turned out to be 1.28 µL/min/1e6 cells. In series [3], the Half-Life is 24 h and the “% of Control (intrinsic clearance relative to the control compound)” value is reported as 90.5%.

As for `[2H]C1([2H])CN(CC(=O)NC(C)(C)C([2H])([2H])[2H])CC([2H])([2H])C1CNC(=O)c1cc(F)cc(Cl)c1` [Compound 9, 3-chloro-5-fluoro-N-[[3,3,5,5-tetradeuterio-1-[2-oxo-2-[(2,2,2-trideuterio-1,1-dimethyl-ethyl)amino]ethyl]-4-piperidyl]methyl]benzamide], in series [1], the “% of Control (intrinsic clearance relative to the control compound)” value worked out at 76.6%, the Half-Life amounted to 0.172 h and the CLint came to 1.35 µL/min/pmol. In series [2] (human), this compound returned an intrinsic metabolic clearance (hepatocyte CLint) at 1 μM of 1.18 µL/min/1e6 cells. Besides, in series [3], the Half-Life is 26.17 h and the “% of Control (intrinsic clearance relative to the control compound)” value was determined as 83.4%.

With `[2H]C([2H])(NC(=O)c1cc(F)cc(Cl)c1)C1CCN(CC(=O)NC(C)(C)C([2H])([2H])[2H])CC1` [Compound 10, 3-chloro-N-[dideuterio-[1-[2-oxo-2-[(2,2,2-trideuterio-1,1-dimethyl-ethyl)amino]ethyl]-4-piperidyl]methyl]-5-fluoro-benzamide], in series [1], the “% of Control (intrinsic clearance relative to the control compound)” value amounted to 81.1%, the Half-Life was found to be 0.162 h and the CLint was 1.43 µL/min/pmol. For the same compound, the hepatocyte CLint at 1 μM in series [2] (human) was determined as 0.91 µL/min/1e6 cells. In series [3], the Half-Life was determined as 33.83 h and the “% of Control (intrinsic clearance relative to the control compound)” value was 64.3%.

In the case of `[2H]C([2H])([2H])C(NC(=O)CN1C([2H])([2H])C([2H])([2H])C([2H])(CNC(=O)c2cc(F)cc(Cl)c2)C([2H])([2H])C1([2H])[2H])(C([2H])([2H])[2H])C([2H])([2H])[2H]` [Compound 12, 3-chloro-5-fluoro-N-[[2,2,3,3,4,5,5,6,6-nonadeuterio-1-[2-oxo-2-[[2,2,2-trideuterio-1,1-bis(trideuteriomethyl)ethyl]amino]ethyl]-4-piperidyl]methyl]benzamide], in series [1], the “% of Control (intrinsic clearance relative to the control compound)” value is given as 60.3%, the Half-Life is 0.218 h and the CLint was determined as 1.06 µL/min/pmol. Further, the intrinsic clearance (hepatocyte CLint) at 1 μM in series [2] (human) amounted to 0.676 µL/min/1e6 cells. Besides, in series [3], the Half-Life came out at 45.5 h and the “% of Control (intrinsic clearance relative to the control compound)” value is 47.8%.
